Experimental findings from patent US11384062B2 (CombiPhos Catalysts, Inc., priority 2017, dated 2022) are described below.

In one assay the test system is HL-60(TB). Conditions: 10 μM single dose; Leukemia HL-60(TB).
For a further assay, the system named is SK-OV-3. Conditions: 10 μM single dose; Ovarian Cancer SK-OV-3. An excerpt:
(§1) The test compounds were screened for anticancer activity at the Development Therapeutic Program (DTP), National Cancer Institute (NCI), USA, against a full NCI 59 cell line panel (six cell lines of leukemia, nine cell lines of lung cancer, seven cell lines of colon cancer, six cell lines of CNS cancer, nine cell lines of melanoma, seven cell lines of ovarian cancer, seven cell lines of renal cancer, two cell lines of prostate cancer, and six cell lines of breast cancer) representing nine human systems in total as leukemia, melanoma, and cancers of the lungs, colon, brain, breast, ovary, kidney, and prostate, according to the applied protocol. A primary in vitro one dose anticancer assay was performed at a single dose (10 μM) against the full NCI 59 cell line panel. The one dose data was reported as a mean graph of the percent growth of treated cells. The number reported for the single dose assay was growth relative to the no drug control and relative to the initial number of cells at time 0. […] A value of −40 means 40% lethality. A value of −100 means all cells are dead.

In another assay the test system is 786-0. Conditions: 10 μM single dose; Renal Cancer 786-0.
From the text: as §1

For another assay, the system named is HOP-62. Conditions: 10 μM single dose; Non-Small Cell Lung Cancer HOP-62.
From the text: as §1

In another assay the test system is A498. Conditions: 10 μM single dose; Renal Cancer A498.
From the text: as §1

The test system of another assay is MDA-MB-468. Conditions: 10 μM single dose; Breast Cancer MDA-MB-468.
From the text: as §1

The test system of a further assay is SK-MEL-28. Conditions: 10 μM single dose; Melanoma SK-MEL-28.
From the text: as §1

In another assay the test system is NCI-H522. Conditions: 10 μM single dose; Non-Small Cell Lung Cancer NCI-H522.
From the text: as §1

In another assay the test system is HCC-2998. Conditions: 10 μM single dose; Colon Cancer HCC-2998.
From the text: as §1

The subject of a further assay is T-47D. Conditions: 10 μM single dose; Breast Cancer T-47D.
From the text: as §1

A further assay has as its system MALME-3M. Conditions: 10 μM single dose; Melanoma MALME-3M.
From the text: as §1

The subject of another assay is A549/ATCC. Conditions: 10 μM single dose; Non-Small Cell Lung Cancer A549/ATCC.
From the text: as §1

The next assay deals with HCT-15. Conditions: 10 μM single dose; Colon Cancer HCT-15.
From the text: as §1

A further assay deals with HS 578T. Conditions: 10 μM single dose; Breast Cancer HS 578T.
From the text: as §1

The test system of another assay is SK-MEL-5. Conditions: 10 μM single dose; Melanoma SK-MEL-5.
From the text: as §1

The test system of a further assay is SNB-75. Conditions: 10 μM single dose; CNS Cancer SNB-75.
From the text: as §1

The subject of a further assay is MDA-MB-435. Conditions: 10 μM single dose; Melanoma MDA-MB-435.
From the text: as §1

Another assay deals with OVCAR-4. Conditions: 10 μM single dose; Ovarian Cancer OVCAR-4.
From the text: as §1

For another assay, the system named is KM12. Conditions: 10 μM single dose; Colon Cancer KM12.
From the text: as §1

The next assay concerns OVCAR-5. Conditions: 10 μM single dose; Ovarian Cancer OVCAR-5.
From the text: as §1

For another assay, the system named is COLO 205. Conditions: 10 μM single dose; Colon Cancer COLO 205.
From the text: as §1

In the next assay the test system is HT29. Conditions: 10 μM single dose; Colon Cancer HT29.
From the text: as §1

For `[2H]C1([2H])NC([2H])([2H])C([2H])(c2ccc(-n3cc4cccc(C(N)=O)c4n3)cc2)C([2H])([2H])C1([2H])[2H]` (racemic) [Example 3, 2-(4-(piperidin-3-yl-2,2,3,4,4,5,5,6,6-d9)phenyl)-2H-indazole-7-carboxamide], the “Growth Percentage” value in the assay with HL-60(TB) stood at 89.31%; in the assay on SK-OV-3, 96.60%; in the assay on 786-0, 103.31%; in the assay on HOP-62, 93.86%; in the assay with A498, 90.94%; in the assay with MDA-MB-468, 109.78%. Besides, the “Growth Percentage” value with SK-MEL-28 turned out to be 107.36%; in the assay with NCI-H522, 83.10%; with HCC-2998, 88.49%; in the assay with T-47D, 98.94%; in the assay with MALME-3M, 91.23%; with A549/ATCC it was 67.74%. Also, the “Growth Percentage” value came to 100.98% with HCT-15; 86.68% with HS 578T; 93.38% in the assay with SK-MEL-5; 76.50% with SNB-75; 98.88% in the assay on MDA-MB-435; 106.31% with OVCAR-4. Moreover, the “Growth Percentage” value in the assay with KM12 was 99.34%; in the assay with OVCAR-5, 100.56%; in the assay on COLO 205 it was 94.82%; with HT29, 93.28%.

Consider `[2H]c1c([2H])c(-n2nc3c(C(N)=O)cccc3c2[2H])c([2H])c([2H])c1C1CCCNC1` (racemic) [Example 11, 2-(4-(piperidin-3-yl)phenyl-2,3,5,6-d4)-2H-indazole-3-d-7-carboxamide], for which the “Growth Percentage” value in the assay on HL-60(TB) is given as 69.13%; in the assay with SK-OV-3 it was 94.12%; with 786-0, 97.43%; in the assay with HOP-62, 94.55%; in the assay on A498 it was 83.22%; in the assay with MDA-MB-468 it was 87.13%. Further, the “Growth Percentage” value in the assay with SK-MEL-28 is on record as 101.33%; with NCI-H522, 89.79%; with HCC-2998, 80.10%; with T-47D it was 90.97%; in the assay on MALME-3M, 92.14%; in the assay on A549/ATCC, 70.16%. In addition, the “Growth Percentage” value stood at 85.76% in the assay with HCT-15; 81.82% with HS 578T; 91.06% with SK-MEL-5; 76.35% in the assay on SNB-75; 91.99% in the assay with MDA-MB-435; 103.47% in the assay with OVCAR-4. The “Growth Percentage” value in the assay on KM12 turned out to be 83.99%; in the assay with OVCAR-5 it was 89.69%; in the assay with COLO 205, 79.11%; with HT29, 87.71%.

On to `[2H]c1c([2H])c(C2([2H])C([2H])NC([2H])C([2H])C2[2H])c([2H])c([2H])c1-n1cc2cccc(C(N)=O)c2n1` (stereo not shown) [Example 4, 2-(4-(piperidin-3-yl-2,3,4,5,6-d5)phenyl-2,3,5,6-d4)-2H-indazole-7-carboxamide], for which the “Growth Percentage” value worked out at 77.68% in the assay with HL-60(TB); 90.49% with SK-OV-3; 92.79% in the assay on 786-0; 89.03% in the assay with A498; 86.59% in the assay with MDA-MB-468; 98.37% with SK-MEL-28. Further, the “Growth Percentage” value amounted to 87.37% in the assay with NCI-H522; 83.97% in the assay on HCC-2998; 98.04% in the assay with T-47D; 79.53% in the assay on MALME-3M; 67.08% in the assay on A549/ATCC; 86.01% with HS 578T. For the same compound, the “Growth Percentage” value was 91.65% with SK-MEL-5; 70.09% in the assay with SNB-75; 92.97% in the assay on MDA-MB-435; 98.64% in the assay on OVCAR-4; 87.65% with KM12; 89.23% with OVCAR-5. The “Growth Percentage” value in the assay on COLO 205 is listed as 82.07%; in the assay with HT29 it was 77.66%.
